Assay results published in patent US10130693B2, “Peptides, combination of peptides and scaffolds for use in immunotherapeutic treatment of various cancers” (Immatics Biotechnologies GmbH, priority 2015, dated 2018).

tested on: HLA-A*24; test: MHC binding assay, UV-ligand exchange with beta2m ELISA (exchange yield), HLA-A*24; design: species or system human; settings: binding to HLA-A*24, UV-ligand exchange
From the text: Candidate peptides for T cell based therapies according to the present invention were further tested for their MHC binding capacity (affinity). The individual peptide-MHC complexes were produced by UV-ligand exchange, where a UV-sensitive peptide is cleaved upon UV-irradiation, and exchanged with the peptide of interest as analyzed. Only peptide candidates that can effectively bind and stabilize the peptide-receptive MHC molecules prevent dissociation of the MHC complexes. To determine the yield of the exchange reaction, an ELISA was performed based on the detection of the light chain (β2m) of stabilized MHC complexes. The assay was performed as generally described in Rodenko et al. (Rodenko et al., 2006).
96 well MAXISorp plates (NUNC) were coated over night with 2 ug/ml streptavidin in PBS at room temperature, washed 4× and blocked for 1 h at 37° C. in 2% BSA containing blocking buffer. […] Peptide-MHC monomers of the UV-exchange reaction were diluted 100 fold in blocking buffer. Samples were incubated for 1 h at 37° C., washed four times, incubated with 2 ug/ml HRP conjugated anti-β2m for 1h at 37° C., washed again and detected with TMB solution that is stopped with […]. Absorption was measured at 450 nm. Candidate peptides that show a high exchange yield (preferably higher than 50%, most preferred higher than 75%) are generally preferred for a generation and production of antibodies or fragments thereof, and/or T cell receptors or fragments thereof, as they show sufficient avidity to the MHC molecules and prevent dissociation of the MHC complexes.

Row | Substance | Peptide exchange (MHC class I binding score, peptide exchange yield)
1 | 213 (SYAPPSEDLFL; listed as Homo sapiens) [compound 213] | ++ (20%-49% = ++)
2 | 214 (KYLMELTLI; listed as Homo sapiens) [compound 214] | +++ (50%-75% = +++)
3 | 215 (SYVASFFLL; listed as Homo sapiens) [compound 215] | ++ (20%-49% = ++)
4 | 216 (FYVNVKEQF; listed as Homo sapiens) [compound 216] | +++ (50%-75% = +++)
5 | 217 (IYISNSIYF; listed as Homo sapiens) [compound 217] | ++++ (>=75% = ++++)
6 | 218 (LYSELNKWSF; listed as Homo sapiens) [compound 218] | +++ (50%-75% = +++)
7 | 219 (SYLKAVFNL; listed as Homo sapiens) [compound 219] | +++ (50%-75% = +++)
8 | 220 (SYSEIKDFL; listed as Homo sapiens) [compound 220] | ++++ (>=75% = ++++)
9 | 221 (KYIGNLDLL; listed as Homo sapiens) [compound 221] | ++++ (>=75% = ++++)
10 | 223 (TFITQSPLL; listed as Homo sapiens) [compound 223] | ++++ (>=75% = ++++)
11 | 224 (PYFFANQEF; listed as Homo sapiens) [compound 224] | +++ (50%-75% = +++)
12 | 225 (TYTNTLERL; listed as Homo sapiens) [compound 225] | +++ (50%-75% = +++)
13 | 226 (MYLKLVQLF; listed as Homo sapiens) [compound 226] | ++ (20%-49% = ++)
14 | 227 (IYRFITERF; listed as Homo sapiens) [compound 227] | +++ (50%-75% = +++)
15 | 228 (IYQYVADNF; listed as Homo sapiens) [compound 228] | +++ (50%-75% = +++)
16 | 229 (IYQFVADSF; listed as Homo sapiens) [compound 229] | +++ (50%-75% = +++)
17 | 230 (TYGMVMVTF; listed as Homo sapiens) [compound 230] | +++ (50%-75% = +++)
18 | 231 (AFADVSVKF; listed as Homo sapiens) [compound 231] | ++++ (>=75% = ++++)
19 | 232 (YYLSDSPLL; listed as Homo sapiens) [compound 232] | +++ (50%-75% = +++)
20 | 233 (QYLTAAALHNL; listed as Homo sapiens) [compound 233] | +++ (50%-75% = +++)
21 | 234 (SYLPAIWLL; listed as Homo sapiens) [compound 234] | +++ (50%-75% = +++)

Row | Substance | Peptide exchange (MHC class I binding score, peptide exchange yield)
22 | 235 (VYKDSIYYI; listed as Homo sapiens) [compound 235] | +++ (50%-75% = +++)
23 | 236 (VYLPKIPSW; listed as Homo sapiens) [compound 236] | +++ (50%-75% = +++)
24 | 237 (KYVGQLAVL; listed as Homo sapiens) [compound 237] | +++ (50%-75% = +++)
25 | 239 (VYAIFRILL; listed as Homo sapiens) [compound 239] | +++ (50%-75% = +++)
26 | 240 (YYFFVQEKI; listed as Homo sapiens) [compound 240] | +++ (50%-75% = +++)
27 | 241 (SYVKVLHHL; listed as Homo sapiens) [compound 241] | +++ (50%-75% = +++)
28 | 242 (VYGEPRELL; listed as Homo sapiens) [compound 242] | +++ (50%-75% = +++)
29 | 243 (SYLELANTL; listed as Homo sapiens) [compound 243] | +++ (50%-75% = +++)
30 | 244 (VHFEDTGKTLLF; listed as Homo sapiens) [compound 244] | +++ (50%-75% = +++)
31 | 245 (LYPQLFVVL; listed as Homo sapiens) [compound 245] | +++ (50%-75% = +++)
32 | 246 (KYLSVQLTL; listed as Homo sapiens) [compound 246] | ++ (20%-49% = ++)
33 | 247 (SFTKTSPNF; listed as Homo sapiens) [compound 247] | +++ (50%-75% = +++)
34 | 248 (AFPTFSVQL; listed as Homo sapiens) [compound 248] | ++++ (>=75% = ++++)
35 | 249 (RYHPTTCTI; listed as Homo sapiens) [compound 249] | ++++ (>=75% = ++++)
36 | 250 (KYPDIASPTF; listed as Homo sapiens) [compound 250] | ++ (20%-49% = ++)
37 | 251 (VYTKALSSL; listed as Homo sapiens) [compound 251] | +++ (50%-75% = +++)
38 | 252 (AFGQETNVPLNNF; listed as Homo sapiens) [compound 252] | ++++ (>=75% = ++++)
39 | 253 (IYGFFNENF; listed as Homo sapiens) [compound 253] | +++ (50%-75% = +++)
40 | 254 (KYLESSATF; listed as Homo sapiens) [compound 254] | +++ (50%-75% = +++)
41 | 255 (VYQKIILKF; listed as Homo sapiens) [compound 255] | +++ (50%-75% = +++)
42 | 256 (VFGKSAYLF; listed as Homo sapiens) [compound 256] | +++ (50%-75% = +++)

Row | Substance | Peptide exchange (MHC class I binding score, peptide exchange yield)
43 | 257 (IFIDNSTQPLHF; listed as Homo sapiens) [compound 257] | +++ (50%-75% = +++)
44 | 258 (AYAQLGYLL; listed as Homo sapiens) [compound 258] | +++ (50%-75% = +++)
45 | 259 (YFIKSPPSQLF; listed as Homo sapiens) [compound 259] | ++ (20%-49% = ++)
46 | 260 (VYMNVMTRL; listed as Homo sapiens) [compound 260] | ++++ (>=75% = ++++)
47 | 261 (GYIKLINFI; listed as Homo sapiens) [compound 261] | ++++ (>=75% = ++++)
48 | 262 (VYSSQFETI; listed as Homo sapiens) [compound 262] | ++++ (>=75% = ++++)
49 | 263 (RYILENHDF; listed as Homo sapiens) [compound 263] | +++ (50%-75% = +++)
50 | 264 (LYTETRLQF; listed as Homo sapiens) [compound 264] | ++++ (>=75% = ++++)
51 | 265 (SYLNEAFSF; listed as Homo sapiens) [compound 265] | ++++ (>=75% = ++++)
52 | 266 (KYTDWTEFL; listed as Homo sapiens) [compound 266] | +++ (50%-75% = +++)
53 | 267 (SFLNIEKTEILF; listed as Homo sapiens) [compound 267] | ++ (20%-49% = ++)
54 | 268 (IFITKALQI; listed as Homo sapiens) [compound 268] | ++ (20%-49% = ++)
55 | 269 (QYPYLQAFF; listed as Homo sapiens) [compound 269] | +++ (50%-75% = +++)
56 | 270 (YYSQESKVLYL; listed as Homo sapiens) [compound 270] | +++ (50%-75% = +++)
57 | 271 (RFLMKSYSF; listed as Homo sapiens) [compound 271] | ++++ (>=75% = ++++)
58 | 272 (RYVFPLPYL; listed as Homo sapiens) [compound 272] | ++++ (>=75% = ++++)
59 | 273 (IYGEKLQFIF; listed as Homo sapiens) [compound 273] | +++ (50%-75% = +++)
60 | 274 (KQLDIANYELF; listed as Homo sapiens) [compound 274] | ++++ (>=75% = ++++)
61 | 275 (KYGTLDVTF; listed as Homo sapiens) [compound 275] | ++++ (>=75% = ++++)
62 | 276 (QYLDVLHAL; listed as Homo sapiens) [compound 276] | ++++ (>=75% = ++++)
